The values below come from PMC6981064 (Biochemical and biophysical research communications, 2019).

The target in assay [1] is T1, glutamate-oxaloacetate transaminase 1 (GOT1) (Homo sapiens, UniProt P17174). As to the kind of experiment: MDH1-coupled enzyme assay, […] h pre-incubation. Type of assay: biochemical.
Assay [2] addresses T1, glutamate-oxaloacetate transaminase 1 (GOT1). As to the kind of experiment: MDH1-coupled enzyme assay, percent inhibition. It is filed as biochemical.

pIC50: −log10 of the molar value.

T1 sequence (P17174 2-413): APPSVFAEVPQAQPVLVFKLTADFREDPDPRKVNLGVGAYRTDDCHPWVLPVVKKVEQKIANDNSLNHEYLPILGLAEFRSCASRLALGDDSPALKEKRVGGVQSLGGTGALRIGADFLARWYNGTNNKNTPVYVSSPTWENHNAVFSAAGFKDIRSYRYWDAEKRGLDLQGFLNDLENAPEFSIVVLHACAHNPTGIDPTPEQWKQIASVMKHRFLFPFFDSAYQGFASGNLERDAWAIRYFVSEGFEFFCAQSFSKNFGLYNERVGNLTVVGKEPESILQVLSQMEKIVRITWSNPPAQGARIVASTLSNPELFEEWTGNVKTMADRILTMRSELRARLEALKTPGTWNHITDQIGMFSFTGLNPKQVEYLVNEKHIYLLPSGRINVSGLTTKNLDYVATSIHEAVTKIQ

A word on the pIC50: it is the negative decadic logarithm of the IC50, by convention in mol/L. Read a low pIC50 as a large IC50. In assay [1], `N[C@H]1Cc2ccccc2N(O)C1=O` [PF-04859989] showed a pIC50 of 5.10.

In the case of `NOCC(=O)O` [amino-oxyacetate], in assay [2], the “MDH1-coupled enzyme assay, percent inhibition” value is listed as “The pan-transaminase inhibitor amino-oxyacetate (AOA) was used as a positive control”.
